From patent US20220380473A1, “ANTI-GAL3 ANTIBODIES AND USES THEREOF” (TrueBinding, Inc., priority 2019, published 2022)

What was measured:
[1] = biological target: T1, interaction between Gal3 and TIM-3 (Mus musculus, UniProt P16110); experiment: Blocking ELISA, mouse Gal3 coated plate and mouse TIM-3 Fc; format: binding; conditions: mGal3 coated plate, mouse TIM-3 Fc
T1 construct: purchased BioLegend (mouse Gal3); R&D systems (mouse TIM-3 Fc)
Experimental: ELISA assays were also performed to test the interaction between Gal3 and TIM-3. 96 well ELISA plates (ThermoFisher Scientific) were coated with mouse Gal3 protein (BioLegend, San Diego, Calif.) in PBS or human Gal9 protein (R&D systems) in PBS or phosphatidylserine (PS) (Sigma) in ethanol and incubated at 4° C. for overnight. The plate was washed three times with TBST and then blocked with PBS buffer containing 2% BSA at room temperature for 1 hour. In FIG. 5A, different anti Gal3 antibodies, i.e. mGal3 polyclonal antibody (R&D systems), mAb IMT001 (also described in WO 2019/023247, hereby expressly incorporated by reference in its entirety), mAb M3/38 (Thermofisher Scientific) (FIG. 5A), were added to well that has been coated with Gal3. The antibodies were incubated for 10 minutes and mouse TIM-3 Fc were then added to the plates and incubated for an additional one-hour incubation. Plates were then washed for three times and followed by incubation with anti-human-IgG-HRP (Jackson ImmunoResearch) for 1 h at room temperature. The color was developed with TMB subtract (GeneTex, Irvine, Calif.) after three time washes with TBST and the reaction was terminated with 1N HCl. The optical density (OD) was read at 450 nm. The results were expressed as the average OD of duplicates±SD. […]

Gal9 binding to TIM-3 = biological target: T2, Gal9 binding to TIM-3 (Homo sapiens, UniProt O00182); experiment: Sugar-dependence ELISA, hGal9 coated plate and mouse TIM-3 Fc
T2 construct: purchased R&D systems
T2 sequence (O00182 whole entry): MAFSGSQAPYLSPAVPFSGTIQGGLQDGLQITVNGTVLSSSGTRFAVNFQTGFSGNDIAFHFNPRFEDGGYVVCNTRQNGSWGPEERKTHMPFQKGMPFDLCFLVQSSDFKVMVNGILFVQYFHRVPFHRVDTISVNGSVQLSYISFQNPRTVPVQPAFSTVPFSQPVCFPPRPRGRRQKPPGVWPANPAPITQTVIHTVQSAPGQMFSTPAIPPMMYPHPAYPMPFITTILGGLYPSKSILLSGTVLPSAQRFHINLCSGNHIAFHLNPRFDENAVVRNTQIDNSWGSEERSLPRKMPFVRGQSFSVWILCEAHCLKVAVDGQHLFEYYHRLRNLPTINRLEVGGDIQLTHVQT

T1 sequence (P16110 2-264 limits assumed): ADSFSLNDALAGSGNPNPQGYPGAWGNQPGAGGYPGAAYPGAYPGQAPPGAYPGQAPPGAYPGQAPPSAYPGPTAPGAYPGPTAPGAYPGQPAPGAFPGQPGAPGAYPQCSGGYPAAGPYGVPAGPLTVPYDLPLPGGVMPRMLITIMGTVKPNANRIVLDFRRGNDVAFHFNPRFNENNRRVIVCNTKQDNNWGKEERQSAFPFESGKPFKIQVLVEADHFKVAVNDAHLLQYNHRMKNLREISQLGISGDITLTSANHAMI

## OC[C@H]1O[C@@H](O[C@H]2[C@H](O)[C@@H](O)[C@@H](O)O[C@@H]2CO)[C@H](O)[C@@H](O)[C@H]1O [lactose, α-Lactose, reference compound]
[1]
  block of Gal3 binding to TIM-3: minimal
Gal9 binding to TIM-3; 25 mM α-Lactose present vs absent
  reduction in signal, Gal9-TIM-3 binding: more than 10 fold
Gal9 binding to TIM-3; 25 mM α-Lactose, hGal9 coated plate
  block of Gal9 binding to TIM-3: blocked
